US10934297B2, “5-heteroaryl substituted indazole-3-carboxamides and preparation and use thereof” (Samumed, LLC, priority 2018, dated 2021)

Experiments:
[1] = tested on: Wnt activity (Sp5-Luc reporter in SW480 cells); experiment: Screening assay for Wnt activity: Sp5-Luc reporter gene assay in SW480 colon carcinoma cells; type: cell-based, human; conditions: Homo sapiens, 36 to 48 hours
Excerpt: The screening assay for Wnt activity is described as follows. Reporter cell lines can be generated by stably transducing cancer cell lines (e.g., colon cancer) or primary cells (e.g., IEC-6 intestinal cells) with a lentiviral construct that includes a Wnt-responsive promoter driving expression of the firefly luciferase gene.
SW480 colon carcinoma cells were transduced with a lentiviral vector expressing luciferase with a human Sp5 promoter consisting of a sequence of eight TCF/LEF binding sites. SW480 cells stably expressing the Sp5-Luc reporter gene and a hygromycin resistance gene were selected by treatment with 150 μg/mL of hygromycin for 7 days. These stably transduced SW480 cells were expanded in cell culture and used for all further screening activities. […] For Sp5-Luc reporter gene assays, the cells were plated at 4,000 cells/well in 384-well plates with a DMEM medium containing 1% fetal bovine serum, and 1% Penicillin-Streptomycin and incubated for 36 to 48 hours at 37° C. and 5% CO2. Following incubation, 15 μl of BriteLite Plus luminescence reagent (Perkin Elmer) was added to each well of the 384-well assay plates. The plates were placed on an orbital shaker for 2 min and then luminescence was quantified using the Envision (Perkin Elmer) plate reader. Readings were normalized to DMSO only treated cells, and normalized activities were utilized for EC50 calculations using the dose-response log (inhibitor) vs. response-variable slope (four parameters) nonlinear regression feature available in GraphPad Prism 5.0 (or Dotmatics).

[2] = target: DYRK1A kinase (Homo sapiens (Human), UniProt Q13627); experiment: DYRK1A kinase assay (Ser/Thr 18 peptide Z-lyte FRET); type: biochemical; conditions: read-out: EC50 (method: IC50)
Procedure: Representative compounds were screened using the assay procedure for DYRK1A kinase activity as described below.
This is a non-radioactive assay using fluorescence resonance energy transfer (FRET) between coumarin and fluorescein to detect kinase activity which is represented as a ratio of coumarin emission/fluorescein emission.
The mixture was allowed to incubate with the representative compounds for one hour at room temperature. All reactions were performed in duplicate. Unphosphorylated (“0% Control”) and phosphorylated (“100% control”) forms of Ser/Thr 18 served as control reactions. Additionally, an 11-point dose-response curve of Staurosporine (1 uM top) was run to serve as a positive compound control.
After incubation, Development Reagent A was diluted in Development Buffer then added to the reaction and allowed to further incubate for one hour at room temperature.

[3] = target: GSK3β kinase (Homo sapiens (Human), UniProt P49841); experiment: GSK3β kinase assay (Ser/Thr 09 peptide Z-lyte FRET); type: biochemical; conditions: read-out: EC50 (method: IC50)
Procedure: Representative compounds were screened using the assay procedure for GSK3β kinase activity as described below.
This is a non-radioactive assay using fluorescence resonance energy transfer (FRET) between coumarin and fluorescein to detect kinase activity which is represented as ratio of coumarin emission/fluorescein emission.
The mixture is allowed to incubate with the representative compounds for one hour at room temperature. All reactions were performed in duplicate. Unphosphorylated (“0% Control”) and phosphorylated (“100% control”) forms of Ser/Thr 18 serve as control reactions.
After incubation, diluted Development Buffer is added to the reaction and allowed to further incubate for one hour at room temperature.
Dose-response curves are generated and inhibitory concentration (IC50) values are calculated using non-linear regression curve fit in the Dotmatics' Studies Software (Bishops Stortford, UK).

[4] = tested on: SW480 colon carcinoma cells; experiment: Cell viability assay (CellTiter-Glo) in SW480 colon carcinoma cells; type: cell-based, human; conditions: Homo sapiens, 96 h, four days
Procedure: Representative compounds were screened using the assay procedure to assess the effect on cell viability as described below.
SW480 colon carcinoma cells were transduced with a lentiviral vector expressing luciferase with a human Sp5 promoter consisting of a sequence of eight TCF/LEF binding sites. SW480 cells stably expressing the Sp5-Luc reporter gene and a hygromycin resistance gene were selected by treatment with 150 μg/mL of hygromycin for 7 days. These stably transduced SW480 cells were expanded in cell culture and used for all further screening activities.
For the Cell Viability Assays, the cells were plated at 2,000 cells/well in 384-well plates with a DMEM medium containing 1% fetal bovine serum, and 1% Penicillin-Streptomycin and incubated for […] at 37° C. and 5% CO2. Eight replicates of DMSO-treated cells served as controls and cells treated with compound were performed in duplicate.
After incubation, 10 μL of CellTiter-Glo (Promega) was added to each well allowed to incubate for approximately 12 minutes. This reagent “results in cell lysis and generation of a luminescent signal proportional to the amount of ATP present. The amount of ATP is directly proportional to the number of cells present in culture, in agreement with previous reports. The CellTiter-Glo® Assay generates a “glow-type” luminescent signal, produced by the luciferase reaction (Promega.com)”.

[5] = tested on: primary human fibroblasts derived from IPF patients (LL29 cells); experiment: Inhibition of the fibrotic process: αSMA staining in TGF-β1 treated LL29 fibroblasts; type: cell-based; conditions: Homo sapiens, Fibroblast, 96 h; LL29 cells, TGF-β1 20 ng/mL, 4 days, % αSMA positive cells
Procedure: Representative compounds were screened using primary human fibroblasts (derived from IPF patients) treated with TGF-β1 to determine their ability to inhibit the fibrotic process.
LL29 cells were plated at 1,500 cells/well in 70 μL/well F12 medium supplemented with 1% Fetal Bovine Serum. […] Wells treated with TGF-β1 and containing DMSO were used as positive control, and cells with only DMSO were negative control. […] Following incubation for 4 days, SYTOX green nucleic acid stain (Life Technologies [Thermo Fisher Scientific]) was added to the wells at a final concentration of 1 μM and incubated at room temperature for 30 min.

[6] = tested on: IL-6; experiment: IL-6 inhibition in LPS-stimulated human peripheral blood mononuclear cells (HTRF); type: cell-based; conditions: Homo sapiens, PBMC; for EC50: huPBMCs, LPS 50 ng/mL, 22 hours, IL-6 HTRF
Procedure: Fresh Normal PB MNC (Catalog #PB001, AllCells, Alameda, Calif.) were shipped overnight at 4° C. and resuspended in Roswell Park Memorial Institute (RPMI) 1640 Medium, with GlutaMAX Supplement (Catalog #61870127, ThermoFisher Scientific, Waltham, Mass.) supplemented with 1% Penicillin-Streptomycin (Catalog #15140163. ThermoFisher Scientific, Waltham, Mass.) and 1% fetal bovine serum (FBS) (Catalog #16140089, ThermoFisher Scientific, Waltham, Mass.) assay media. Fresh normal human peripheral blood mononuclear cells (huPBMCs) were resuspended in 1% FBS-RPMI assay media with 1% Penicillin-Streptomycin 1% to a cell concentration of 1×10e6 cells/mL. […] 50 ng/mL of Lipopolysaccharides from Escherichia coli 0111:B4 (Catalog #L5293-2ML, Sigma-Aldrich, St. Louis, Mo.) was added after 2 hours and cells were incubated for another 22 hours at 37° C.-5% CO2. After 22 hour incubation, a mixture of anti-IL6 XL665 and anti-IL-6 Cryptate diluted in reconstitution buffer (Catalog #62IL6PEC, Cisbio Inc., Bedford, Mass.) was added to each well. Following incubation for 3 hours at room temperature, Homogeneous Time-Resolved Fluorescence (HTRF) was measured using the Envision (Perkin Elmer, Shelton, Conn.) at 665 nm and […]. The ratio of fluorescence at 665 nm to 620 nm was used as a readout for IL-6 quantification. All samples were processed in duplicate. Readings were normalized to DMSO treated cells and normalized activities were utilized for EC50 calculations.

GSK3β kinase, sequence (P49841 whole entry): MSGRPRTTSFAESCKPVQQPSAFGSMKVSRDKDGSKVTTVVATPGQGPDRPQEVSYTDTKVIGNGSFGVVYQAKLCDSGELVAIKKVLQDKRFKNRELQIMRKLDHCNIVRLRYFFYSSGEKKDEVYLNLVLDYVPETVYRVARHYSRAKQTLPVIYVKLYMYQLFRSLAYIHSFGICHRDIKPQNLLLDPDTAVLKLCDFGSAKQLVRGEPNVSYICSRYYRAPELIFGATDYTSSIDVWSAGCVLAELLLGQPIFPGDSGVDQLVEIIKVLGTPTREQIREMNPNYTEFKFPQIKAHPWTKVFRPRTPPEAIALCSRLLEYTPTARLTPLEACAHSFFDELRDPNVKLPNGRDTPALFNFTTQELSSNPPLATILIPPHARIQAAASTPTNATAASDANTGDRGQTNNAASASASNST

| SMILES | EC50 [1] | IC50 [2] | IC50 [3] | EC50 [4] | EC50 [6] | EC50 [5] | inhibition at 10 µM ([6]; read-out: percent inhibition at 10 μM) |
| --- | --- | --- | --- | --- | --- | --- | --- |
| CC(C)CNC(=O)c1n[nH]c2ccc(-c3cn[nH]c3)cc12 [Compound 1, N-Isobutyl-5-(1H-pyrazol-4-yl)-1H-indazole-3-carboxamide] | 358 nM | 30 nM | 28 nM | 2580 nM | 1170 nM | 160 nM | – |
| CC(C)CNC(=O)c1n[nH]c2ccc(-c3cnn(C)c3)cc12 [Compound 2, N-Isobutyl-5-(1-methyl-1H-pyrazol-4-yl)-1H-indazole-3-carboxamide] | 819 nM | 25 nM | 11 nM | 5980 nM | 3010 nM | 75 nM | – |
| C[C@@H](NC(=O)c1n[nH]c2ccc(-c3cnn(C)c3)cc12)C(F)(F)F [Compound 3, (R)-5-(1-Methyl-1H-pyrazol-4-yl)-N-(1,1,1-trifluoropropan-2-yl)-1H-indazole-3-carboxamide] | > 10000 nM | 134 nM | 106 nM | 8950 nM | 9070 nM | 2580 nM | – |
| C[C@H](NC(=O)c1n[nH]c2ccc(-c3cnn(C)c3)cc12)C(F)(F)F [Compound 4, (S)-5-(1-Methyl-1H-pyrazol-4-yl)-N-(1,1,1-trifluoropropan-2-yl)-1H-indazole-3-carboxamide] | 3840 nM | 26 nM | 24 nM | 2550 nM | 2890 nM | 171 nM | – |
| Cn1cc(-c2ccc3[nH]nc(C(=O)NCCC(F)(F)F)c3c2)cn1 [Compound 5, 5-(1-Methyl-1H-pyrazol-4-yl)-N-(3,3,3-trifluoropropyl)-1H-indazole-3-carboxamide] | 655 nM | 25 nM | 8 nM | 2520 nM | 2940 nM | 151 nM | – |
| Cn1cc(-c2cc(F)c3[nH]nc(C(=O)NCCC(F)(F)F)c3c2)cn1 [Compound 6, 7-Fluoro-5-(1-methyl-1H-pyrazol-4-yl)-N-(3,3,3-trifluoropropyl)-1H-indazole-3-carboxamide] | 325 nM | 207 nM | 15 nM | 737 nM | > 10000 nM | 148 nM | 37.8% |

More lines, main results first:

| EC50 [1] | IC50 [2] | IC50 [3] | EC50 [4] | EC50 [6] | SMILES | EC50 [5] | inhibition at 10 µM ([6]; read-out: percent inhibition at 10 μM) |
| --- | --- | --- | --- | --- | --- | --- | --- |
| 2600 nM | 55 nM | 255 nM | 5600 nM | 2010 nM | CC(C)NC(=O)c1n[nH]c2ccc(-c3cnn(C4CCNCC4)c3)cc12 [Compound 7, N-Isopropyl-5-(1-(piperidin-4-yl)-1H-pyrazol-4-yl)-1H-indazole-3-carboxamide] | > 10000 nM | – |
| 565 nM | 31 nM | 22 nM | 511 nM | 3360 nM | Cn1cc(-c2ccc3[nH]nc(C(=O)NCC4CCC(F)(F)CC4)c3c2)cn1 [Compound 8, N-((4,4-Difluorocyclohexyl)methyl)-5-(1-methyl-1H-pyrazol-4-yl)-1H-indazole-3-carboxamide] | 146 nM | – |
| 1980 nM | 18 nM | 6 nM | 1330 nM | 1090 nM | Cn1cc(-c2ccc3[nH]nc(C(=O)N[C@@H]4CCCC[C@H]4F)c3c2)cn1 [Compound 9, N-((1R,2R)-2-Fluorocyclohexyl)-5-(1-methyl-1H-pyrazol-4-yl)-1H-indazole-3-carboxamide] | 324 nM | – |
| 3400 nM | 16 nM | 9 nM | 1080 nM | 903 nM | Cn1cc(-c2cc3c(C(=O)N[C@@H]4CCCC[C@H]4F)n[nH]c3cc2F)cn1 [Compound 10, 6-Fluoro-N-((1R,2R)-2-fluorocyclohexyl)-5-(1-methyl-1H-pyrazol-4-yl)-1H-indazole-3-carboxamide] | 331 nM | – |
| > 10000 nM | 198 nM | 20 nM | 1940 nM | 3320 nM | Cn1cc(-c2cc(F)c3[nH]nc(C(=O)N[C@@H]4CCCC[C@H]4F)c3c2)cn1 [Compound 11, 7-Fluoro-N-((1R,2R)-2-fluorocyclohexyl)-5-(1-methyl-1H-pyrazol-4-yl)-1H-indazole-3-carboxamide] | > 10000 nM | – |
| 5470 nM | 171 nM | 38 nM | 2260 nM | 1160 nM | O=C(N[C@@H]1CCCC[C@H]1F)c1n[nH]c2ccc(-c3cnn(C4CC4)c3)cc12 [Compound 12, 5-(1-Cyclopropyl-1H-pyrazol-4-yl)-N-((1R,2R)-2-fluorocyclohexyl)-1H-indazole-3-carboxamide] | 621 nM | – |
| > 10000 nM | 46 nM | 24 nM | > 10000 nM | > 10000 nM | Cc1ncc(-c2ccc3[nH]nc(C(=O)N[C@@H]4CCCC[C@H]4F)c3c2)n1C [Compound 13, 5-(1,2-Dimethyl-1H-imidazol-5-yl)-N-((1R,2R)-2-fluorocyclohexyl)-1H-indazole-3-carboxamide] | 1390 nM | – |
| 903 nM | 18 nM | 23 nM | > 10000 nM | 3540 nM | Cn1cc(-c2ccc3[nH]nc(C(=O)NC4CCC(F)(F)CC4)c3c2)cn1 [Compound 14, N-(4,4-Difluorocyclohexyl)-5-(1-methyl-1H-pyrazol-4-yl)-1H-indazole-3-carboxamide] | 114 nM | – |
